Among the data in PMC10148497, “Evaluation of Bacillus aryabhattai B8W22 peroxidase for phenol removal in waste water effluents” (BMC Microbiology, 2023) are Km values, retold here.

For this experiment, the system named is T1, peroxidase from Bacillus aryabhattai B8W22.
T1 construct: gene extracellular peroxidase; 66 kDa on SDS-PAGE
The experiment can be described thus: peroxidase activity assay, Lineweaver-Burk plot. It counts as biochemical, Priestia aryabhattai. The conditions noted are these: co-substrate, pH and temperature of the kinetic assay not given.

As usually defined, the Km is the substrate concentration at which the rate is half of its maximum.

SMILES strings stand for the structures.

As to `COc1ccccc1O` [guaiacol], the Km turned out to be 6.942 mg/mL.
